Assay results: the NIST ThermoML archive (doi:10.1021/je800101v)
± gives the expanded uncertainty stated by the source.

How the values were obtained:
[1] = for surface tension liquid-gas: Ring tensiometer; for mass density: 101.33 kPa, Liquid
[2] = xn = mol fraction of the nth substance listed; conditions: Ring tensiometer

Work on `OCCO` [1,2-ethanediol] yielded a surface tension liquid-gas ([1]; 298.15 K) of 47.79 ± 0.68 mN/m, a surface tension liquid-gas ([1]; 303.15 K) of 47.57 ± 0.67 mN/m and a surface tension liquid-gas ([1]; 308.15 K) of 47.25 ± 0.67 mN/m. The surface tension liquid-gas ([1]; 313.15 K) was 47.1 ± 0.67 mN/m and the surface tension liquid-gas ([1]; 318.15 K) was 46.4 ± 0.66 mN/m.

Compound `OCCO` [1,2-ethanediol] + CCCCCCO has a surface tension liquid-gas ([2]; 298.15 K, x2 = 0) of 47.79 ± 0.68 mN/m, a surface tension liquid-gas ([2]; 303.15 K, x2 = 0) of 47.57 ± 0.67 mN/m and a surface tension liquid-gas ([2]; 308.15 K, x2 = 0) of 47.25 ± 0.67 mN/m. The surface tension liquid-gas ([2]; 313.15 K, x2 = 0) was 47.1 ± 0.67 mN/m and the surface tension liquid-gas ([2]; 318.15 K, x2 = 0) was 46.4 ± 0.66 mN/m.

In the case of `CCCCCCCO` [heptan-1-ol], the surface tension liquid-gas ([1]; 298.15 K) is reported as 26.38 ± 0.42 mN/m and the mass density ([1]; 298.15 K, Vibrating tube method) is reported as 818.11 ± 0.81 kg/m3.

With `CCCCCCO` [hexan-1-ol] the surface tension liquid-gas ([1]; 298.15 K) was 25.69 ± 0.42 mN/m and the mass density ([1]; 298.15 K) was 815.02 ± 0.98 kg/m3.

In the case of `CCCCCCO` [hexan-1-ol] + OCCO, the surface tension liquid-gas ([2]; 298.15 K, x1 = 0.0429) is reported as 32.5 ± 0.52 mN/m, the surface tension liquid-gas ([2]; 298.15 K, x1 = 0.1009) is reported as 29.07 ± 0.45 mN/m and the surface tension liquid-gas ([2]; 298.15 K, x1 = 0.2761) is reported as 28 ± 0.44 mN/m. It also gave a surface tension liquid-gas ([2]; 298.15 K, x1 = 0.3098) of 27.9 ± 0.44 mN/m, a surface tension liquid-gas ([2]; 298.15 K, x1 = 0.35) of 27.38 ± 0.44 mN/m and a surface tension liquid-gas ([2]; 298.15 K, x1 = 0.3942) of 27.32 ± 0.43 mN/m. It also gave a surface tension liquid-gas ([2]; 298.15 K, x1 = 0.4468) of 27.24 ± 0.43 mN/m, a surface tension liquid-gas ([2]; 298.15 K, x1 = 0.5079) of 27.03 ± 0.43 mN/m and a surface tension liquid-gas ([2]; 298.15 K, x1 = 0.5405) of 26.82 ± 0.43 mN/m. It also gave a surface tension liquid-gas ([2]; 298.15 K, x1 = 0.6061) of 26.71 ± 0.43 mN/m, a surface tension liquid-gas ([2]; 298.15 K, x1 = 0.6452) of 26.62 ± 0.43 mN/m and a surface tension liquid-gas ([2]; 298.15 K, x1 = 0.6897) of 26.51 ± 0.43 mN/m. It also gave a surface tension liquid-gas ([2]; 298.15 K, x1 = 0.7407) of 26.43 ± 0.43 mN/m, a surface tension liquid-gas ([2]; 298.15 K, x1 = 0.8) of 26.34 ± 0.43 mN/m and a surface tension liquid-gas ([2]; 298.15 K, x1 = 0.8333) of 26.28 ± 0.43 mN/m. The surface tension liquid-gas ([2]; 298.15 K, x1 = 0.9091) was 26.22 ± 0.43 mN/m, the surface tension liquid-gas ([2]; 298.15 K, x1 = 0.9524) was 26.16 ± 0.42 mN/m and the surface tension liquid-gas ([2]; 303.15 K, x1 = 0.0429) was 32.81 ± 0.49 mN/m. It also gave a surface tension liquid-gas ([2]; 303.15 K, x1 = 0.1009) of 29.49 ± 0.46 mN/m, a surface tension liquid-gas ([2]; 303.15 K, x1 = 0.2761) of 27.47 ± 0.44 mN/m and a surface tension liquid-gas ([2]; 303.15 K, x1 = 0.3098) of 27.32 ± 0.43 mN/m. The surface tension liquid-gas ([2]; 303.15 K, x1 = 0.35) was 27.12 ± 0.43 mN/m, the surface tension liquid-gas ([2]; 303.15 K, x1 = 0.3942) was 26.98 ± 0.43 mN/m and the surface tension liquid-gas ([2]; 303.15 K, x1 = 0.4468) was 26.78 ± 0.43 mN/m. The surface tension liquid-gas ([2]; 303.15 K, x1 = 0.5079) was 26.48 ± 0.43 mN/m, the surface tension liquid-gas ([2]; 303.15 K, x1 = 0.5405) was 26.38 ± 0.42 mN/m and the surface tension liquid-gas ([2]; 303.15 K, x1 = 0.6061) was 26.17 ± 0.42 mN/m. For the same compound, the surface tension liquid-gas ([2]; 303.15 K, x1 = 0.6452) was 25.97 ± 0.42 mN/m, the surface tension liquid-gas ([2]; 303.15 K, x1 = 0.6897) was 25.75 ± 0.42 mN/m and the surface tension liquid-gas ([2]; 303.15 K, x1 = 0.7407) was 25.48 ± 0.42 mN/m. It also gave a surface tension liquid-gas ([2]; 303.15 K, x1 = 0.8) of 25.38 ± 0.41 mN/m, a surface tension liquid-gas ([2]; 303.15 K, x1 = 0.8333) of 25.25 ± 0.41 mN/m and a surface tension liquid-gas ([2]; 303.15 K, x1 = 0.9091) of 25.16 ± 0.41 mN/m. It also gave a surface tension liquid-gas ([2]; 303.15 K, x1 = 0.9524) of 25.02 ± 0.41 mN/m, a surface tension liquid-gas ([2]; 308.15 K, x1 = 0.0429) of 32.68 ± 0.49 mN/m and a surface tension liquid-gas ([2]; 308.15 K, x1 = 0.1009) of 29.34 ± 0.46 mN/m. It also gave a surface tension liquid-gas ([2]; 308.15 K, x1 = 0.2761) of 27.31 ± 0.43 mN/m, a surface tension liquid-gas ([2]; 308.15 K, x1 = 0.3098) of 27.19 ± 0.43 mN/m and a surface tension liquid-gas ([2]; 308.15 K, x1 = 0.35) of 26.98 ± 0.43 mN/m. It also gave a surface tension liquid-gas ([2]; 308.15 K, x1 = 0.3942) of 26.83 ± 0.43 mN/m, a surface tension liquid-gas ([2]; 308.15 K, x1 = 0.4468) of 26.63 ± 0.43 mN/m and a surface tension liquid-gas ([2]; 308.15 K, x1 = 0.5079) of 26.35 ± 0.42 mN/m. The surface tension liquid-gas ([2]; 308.15 K, x1 = 0.5405) was 26.25 ± 0.42 mN/m, the surface tension liquid-gas ([2]; 308.15 K, x1 = 0.6061) was 26.01 ± 0.42 mN/m and the surface tension liquid-gas ([2]; 308.15 K, x1 = 0.6452) was 25.78 ± 0.42 mN/m. It also gave a surface tension liquid-gas ([2]; 308.15 K, x1 = 0.6897) of 25.58 ± 0.42 mN/m, a surface tension liquid-gas ([2]; 308.15 K, x1 = 0.7407) of 25.3 ± 0.41 mN/m and a surface tension liquid-gas ([2]; 308.15 K, x1 = 0.8) of 25.19 ± 0.41 mN/m. For the same compound, the surface tension liquid-gas ([2]; 308.15 K, x1 = 0.8333) was 25.17 ± 0.41 mN/m, the surface tension liquid-gas ([2]; 308.15 K, x1 = 0.9091) was 24.97 ± 0.41 mN/m and the surface tension liquid-gas ([2]; 308.15 K, x1 = 0.9524) was 24.81 ± 0.41 mN/m. It also gave a surface tension liquid-gas ([2]; 313.15 K, x1 = 0.0429) of 31.55 ± 0.48 mN/m, a surface tension liquid-gas ([2]; 313.15 K, x1 = 0.1009) of 29.27 ± 0.45 mN/m and a surface tension liquid-gas ([2]; 313.15 K, x1 = 0.2761) of 27.15 ± 0.43 mN/m. For the same compound, the surface tension liquid-gas ([2]; 313.15 K, x1 = 0.3098) was 27.02 ± 0.43 mN/m, the surface tension liquid-gas ([2]; 313.15 K, x1 = 0.35) was 26.81 ± 0.43 mN/m and the surface tension liquid-gas ([2]; 313.15 K, x1 = 0.3942) was 26.68 ± 0.43 mN/m. It also gave a surface tension liquid-gas ([2]; 313.15 K, x1 = 0.4468) of 26.47 ± 0.43 mN/m, a surface tension liquid-gas ([2]; 313.15 K, x1 = 0.5079) of 26.17 ± 0.42 mN/m and a surface tension liquid-gas ([2]; 313.15 K, x1 = 0.5405) of 26.07 ± 0.42 mN/m. For the same compound, the surface tension liquid-gas ([2]; 313.15 K, x1 = 0.6061) was 25.85 ± 0.42 mN/m, the surface tension liquid-gas ([2]; 313.15 K, x1 = 0.6452) was 25.65 ± 0.42 mN/m and the surface tension liquid-gas ([2]; 313.15 K, x1 = 0.6897) was 25.38 ± 0.41 mN/m. The surface tension liquid-gas ([2]; 313.15 K, x1 = 0.7407) was 25.16 ± 0.41 mN/m, the surface tension liquid-gas ([2]; 313.15 K, x1 = 0.8) was 25.02 ± 0.41 mN/m and the surface tension liquid-gas ([2]; 313.15 K, x1 = 0.8333) was 24.98 ± 0.41 mN/m. The surface tension liquid-gas ([2]; 313.15 K, x1 = 0.9091) was 24.78 ± 0.41 mN/m, the surface tension liquid-gas ([2]; 313.15 K, x1 = 0.9524) was 24.61 ± 0.41 mN/m and the surface tension liquid-gas ([2]; 318.15 K, x1 = 0.0429) was 31.38 ± 0.52 mN/m. For the same compound, the surface tension liquid-gas ([2]; 318.15 K, x1 = 0.1009) was 28.97 ± 0.45 mN/m, the surface tension liquid-gas ([2]; 318.15 K, x1 = 0.2761) was 26.91 ± 0.43 mN/m and the surface tension liquid-gas ([2]; 318.15 K, x1 = 0.3098) was 26.8 ± 0.43 mN/m. It also gave a surface tension liquid-gas ([2]; 318.15 K, x1 = 0.35) of 26.63 ± 0.43 mN/m, a surface tension liquid-gas ([2]; 318.15 K, x1 = 0.3942) of 26.47 ± 0.43 mN/m and a surface tension liquid-gas ([2]; 318.15 K, x1 = 0.4468) of 26.31 ± 0.42 mN/m. The surface tension liquid-gas ([2]; 318.15 K, x1 = 0.5079) was 25.97 ± 0.42 mN/m, the surface tension liquid-gas ([2]; 318.15 K, x1 = 0.5405) was 25.88 ± 0.42 mN/m and the surface tension liquid-gas ([2]; 318.15 K, x1 = 0.6061) was 25.67 ± 0.42 mN/m. For the same compound, the surface tension liquid-gas ([2]; 318.15 K, x1 = 0.6452) was 25.48 ± 0.42 mN/m, the surface tension liquid-gas ([2]; 318.15 K, x1 = 0.6897) was 25.21 ± 0.41 mN/m and the surface tension liquid-gas ([2]; 318.15 K, x1 = 0.7407) was 24.99 ± 0.41 mN/m. For the same compound, the surface tension liquid-gas ([2]; 318.15 K, x1 = 0.8) was 24.81 ± 0.41 mN/m, the surface tension liquid-gas ([2]; 318.15 K, x1 = 0.8333) was 24.75 ± 0.41 mN/m and the surface tension liquid-gas ([2]; 318.15 K, x1 = 0.9091) was 24.56 ± 0.41 mN/m. The surface tension liquid-gas ([2]; 318.15 K, x1 = 0.9524) was 24.45 ± 0.4 mN/m.

Compound `CCCCCO` [pentan-1-ol] has a surface tension liquid-gas ([1]; 298.15 K) of 24.89 ± 0.41 mN/m and a mass density ([1]; 298.15 K) of 811.1 ± 0.99 kg/m3.
